Among the targets are BMPR1A (Homo sapiens, UniProt P36894); CSNK1D (Homo sapiens, UniProt P48730); ERBB3 (Homo sapiens, UniProt P21860); FLT3(ITD,F691L) (Homo sapiens, UniProt P36888, F691L/ITD); FYN (Homo sapiens, UniProt P06241); HUNK (Homo sapiens, UniProt P57058); LIMK1 (Homo sapiens, UniProt P53667); MAP3K1 (Homo sapiens, UniProt Q13233); MAST1 (Homo sapiens, UniProt Q9Y2H9); NEK9 (Homo sapiens, UniProt Q8TD19); PHKG1 (Homo sapiens, UniProt Q16816); PRKCH (Homo sapiens, UniProt P24723); RIPK4 (Homo sapiens, UniProt P57078); STK16 (Homo sapiens, UniProt O75716).

Holding throughout (test): biochemical
Parameters in all cases: DiscoverX KINOMEscan scanMAX competition binding panel, single concentration, percent of control; remaining binding: dose or concentration left out as unconfirmed
Common to all, as to conditions: KINOMEscan binding, percent of control; read-out: Table S4_SCANMAX REPORT - related to Fig. 1 / Percent Control

The target of another test is T1, CDK4-cyclinD3 (Homo sapiens, UniProt P11802).
T1 construct: cyclinD3

The target of a further test is T2, DMPK2 (Homo sapiens, UniProt Q6DT37).
T2 construct: gene CDC42BPG
T2 sequence (Q6DT37 whole entry): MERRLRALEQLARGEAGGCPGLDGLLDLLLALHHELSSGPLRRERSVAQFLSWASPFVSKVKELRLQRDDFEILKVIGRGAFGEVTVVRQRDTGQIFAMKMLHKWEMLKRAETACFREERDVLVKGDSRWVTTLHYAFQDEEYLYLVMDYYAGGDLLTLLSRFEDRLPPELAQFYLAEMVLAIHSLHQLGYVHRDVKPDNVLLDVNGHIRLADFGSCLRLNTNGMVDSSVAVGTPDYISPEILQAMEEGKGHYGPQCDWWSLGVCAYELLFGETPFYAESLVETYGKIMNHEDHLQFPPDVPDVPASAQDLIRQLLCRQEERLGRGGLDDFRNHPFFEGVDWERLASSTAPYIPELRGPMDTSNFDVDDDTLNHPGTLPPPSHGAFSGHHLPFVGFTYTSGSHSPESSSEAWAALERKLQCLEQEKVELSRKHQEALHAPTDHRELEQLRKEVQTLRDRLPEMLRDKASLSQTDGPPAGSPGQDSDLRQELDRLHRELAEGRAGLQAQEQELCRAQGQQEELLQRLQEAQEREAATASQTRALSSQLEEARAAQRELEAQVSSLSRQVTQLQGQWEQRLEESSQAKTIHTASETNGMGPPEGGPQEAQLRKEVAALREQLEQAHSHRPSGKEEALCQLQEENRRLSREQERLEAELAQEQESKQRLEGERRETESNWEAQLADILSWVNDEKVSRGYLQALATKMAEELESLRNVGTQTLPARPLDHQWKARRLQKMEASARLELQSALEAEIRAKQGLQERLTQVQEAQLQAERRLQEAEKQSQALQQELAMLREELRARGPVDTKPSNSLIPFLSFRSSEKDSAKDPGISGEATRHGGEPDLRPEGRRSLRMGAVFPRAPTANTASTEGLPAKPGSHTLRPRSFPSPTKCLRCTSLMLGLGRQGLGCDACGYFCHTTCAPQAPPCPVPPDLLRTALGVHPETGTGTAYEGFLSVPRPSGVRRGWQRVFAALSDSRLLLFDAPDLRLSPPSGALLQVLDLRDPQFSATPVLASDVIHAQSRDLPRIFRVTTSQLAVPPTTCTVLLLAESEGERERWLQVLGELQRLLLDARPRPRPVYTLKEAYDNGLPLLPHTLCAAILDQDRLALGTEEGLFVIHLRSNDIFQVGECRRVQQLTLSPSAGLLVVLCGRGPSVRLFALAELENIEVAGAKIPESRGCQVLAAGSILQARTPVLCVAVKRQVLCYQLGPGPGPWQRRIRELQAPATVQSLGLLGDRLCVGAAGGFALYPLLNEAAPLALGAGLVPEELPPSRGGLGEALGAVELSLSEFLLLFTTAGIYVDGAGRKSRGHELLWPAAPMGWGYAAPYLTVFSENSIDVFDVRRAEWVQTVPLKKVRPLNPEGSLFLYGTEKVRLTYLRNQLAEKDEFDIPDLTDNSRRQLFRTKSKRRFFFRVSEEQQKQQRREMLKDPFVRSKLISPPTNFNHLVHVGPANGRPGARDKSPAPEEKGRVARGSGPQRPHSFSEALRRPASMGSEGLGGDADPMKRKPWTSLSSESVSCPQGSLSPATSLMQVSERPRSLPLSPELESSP

The target of another test is T3, IKK-beta (Homo sapiens, UniProt O14920).
T3 construct: gene IKBKB

In test [1] the target is T4, JAK3(JH1domain-catalytic) (Homo sapiens, UniProt P52333).
T4 construct: JH1domain-catalytic
T4 sequence (P52333 whole entry): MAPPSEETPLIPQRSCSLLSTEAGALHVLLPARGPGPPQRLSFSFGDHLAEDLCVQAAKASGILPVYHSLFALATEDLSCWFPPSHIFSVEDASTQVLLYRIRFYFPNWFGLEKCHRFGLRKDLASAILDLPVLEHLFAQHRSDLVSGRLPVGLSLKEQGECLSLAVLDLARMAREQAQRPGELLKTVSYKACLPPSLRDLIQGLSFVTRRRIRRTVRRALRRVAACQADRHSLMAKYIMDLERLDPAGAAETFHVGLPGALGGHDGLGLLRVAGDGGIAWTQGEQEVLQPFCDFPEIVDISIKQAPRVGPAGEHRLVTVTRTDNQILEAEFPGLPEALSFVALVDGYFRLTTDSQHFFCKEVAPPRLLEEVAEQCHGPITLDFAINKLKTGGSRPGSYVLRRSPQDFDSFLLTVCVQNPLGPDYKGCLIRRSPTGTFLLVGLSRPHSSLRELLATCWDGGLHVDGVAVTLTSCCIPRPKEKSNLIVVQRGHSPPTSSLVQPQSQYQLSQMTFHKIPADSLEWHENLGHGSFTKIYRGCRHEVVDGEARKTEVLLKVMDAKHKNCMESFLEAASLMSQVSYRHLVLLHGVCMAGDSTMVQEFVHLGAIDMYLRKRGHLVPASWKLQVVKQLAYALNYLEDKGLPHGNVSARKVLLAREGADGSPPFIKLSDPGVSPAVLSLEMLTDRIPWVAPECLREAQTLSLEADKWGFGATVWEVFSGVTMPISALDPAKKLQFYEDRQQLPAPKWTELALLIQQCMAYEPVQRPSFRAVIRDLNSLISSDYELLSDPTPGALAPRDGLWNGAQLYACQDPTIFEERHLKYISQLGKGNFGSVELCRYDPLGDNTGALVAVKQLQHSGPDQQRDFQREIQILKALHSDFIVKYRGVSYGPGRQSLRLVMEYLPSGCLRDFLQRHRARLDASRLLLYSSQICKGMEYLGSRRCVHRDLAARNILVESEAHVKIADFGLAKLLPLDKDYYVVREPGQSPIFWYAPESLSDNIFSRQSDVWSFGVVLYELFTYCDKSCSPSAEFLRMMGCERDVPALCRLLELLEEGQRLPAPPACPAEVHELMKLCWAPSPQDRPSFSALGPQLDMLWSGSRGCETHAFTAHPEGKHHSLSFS

A further test concerns the target T5, PKAC-alpha (Homo sapiens, UniProt P17612).
T5 construct: gene PRKACA

ERBB3, sequence (P21860 whole entry): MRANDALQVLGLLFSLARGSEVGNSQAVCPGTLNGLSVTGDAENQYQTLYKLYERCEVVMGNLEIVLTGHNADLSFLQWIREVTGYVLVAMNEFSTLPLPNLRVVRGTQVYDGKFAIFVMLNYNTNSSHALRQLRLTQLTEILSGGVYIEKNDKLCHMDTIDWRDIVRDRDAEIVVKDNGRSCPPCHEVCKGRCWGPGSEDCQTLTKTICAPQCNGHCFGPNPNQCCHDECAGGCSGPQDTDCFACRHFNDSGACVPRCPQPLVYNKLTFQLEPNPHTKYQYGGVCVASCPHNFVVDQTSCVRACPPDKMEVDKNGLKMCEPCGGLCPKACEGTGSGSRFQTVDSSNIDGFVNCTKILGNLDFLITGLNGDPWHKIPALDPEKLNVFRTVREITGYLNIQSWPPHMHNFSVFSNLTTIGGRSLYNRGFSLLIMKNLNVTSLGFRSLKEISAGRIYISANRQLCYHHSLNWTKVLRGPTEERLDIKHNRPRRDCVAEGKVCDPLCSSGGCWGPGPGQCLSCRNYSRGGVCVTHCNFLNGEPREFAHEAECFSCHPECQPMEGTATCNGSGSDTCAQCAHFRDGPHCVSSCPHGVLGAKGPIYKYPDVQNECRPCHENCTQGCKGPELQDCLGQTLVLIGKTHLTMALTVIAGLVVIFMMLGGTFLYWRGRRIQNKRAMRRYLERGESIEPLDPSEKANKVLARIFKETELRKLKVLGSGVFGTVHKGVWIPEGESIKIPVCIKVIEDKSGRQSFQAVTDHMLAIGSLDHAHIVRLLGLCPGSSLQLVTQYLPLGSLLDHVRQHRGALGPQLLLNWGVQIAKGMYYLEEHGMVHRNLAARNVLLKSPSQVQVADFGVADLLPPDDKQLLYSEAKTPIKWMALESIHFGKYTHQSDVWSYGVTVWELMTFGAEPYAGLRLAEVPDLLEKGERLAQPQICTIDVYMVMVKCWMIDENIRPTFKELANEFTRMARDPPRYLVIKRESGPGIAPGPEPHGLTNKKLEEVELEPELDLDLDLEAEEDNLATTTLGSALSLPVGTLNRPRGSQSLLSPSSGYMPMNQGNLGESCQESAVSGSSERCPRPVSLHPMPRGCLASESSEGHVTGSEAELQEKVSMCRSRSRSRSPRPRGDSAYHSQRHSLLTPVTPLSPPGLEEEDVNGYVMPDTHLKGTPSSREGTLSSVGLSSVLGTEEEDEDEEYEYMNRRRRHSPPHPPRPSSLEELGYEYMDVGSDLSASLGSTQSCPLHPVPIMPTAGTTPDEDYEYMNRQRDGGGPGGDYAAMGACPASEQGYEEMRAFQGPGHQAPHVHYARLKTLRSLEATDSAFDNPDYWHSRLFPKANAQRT
CSNK1D, sequence (P48730 whole entry): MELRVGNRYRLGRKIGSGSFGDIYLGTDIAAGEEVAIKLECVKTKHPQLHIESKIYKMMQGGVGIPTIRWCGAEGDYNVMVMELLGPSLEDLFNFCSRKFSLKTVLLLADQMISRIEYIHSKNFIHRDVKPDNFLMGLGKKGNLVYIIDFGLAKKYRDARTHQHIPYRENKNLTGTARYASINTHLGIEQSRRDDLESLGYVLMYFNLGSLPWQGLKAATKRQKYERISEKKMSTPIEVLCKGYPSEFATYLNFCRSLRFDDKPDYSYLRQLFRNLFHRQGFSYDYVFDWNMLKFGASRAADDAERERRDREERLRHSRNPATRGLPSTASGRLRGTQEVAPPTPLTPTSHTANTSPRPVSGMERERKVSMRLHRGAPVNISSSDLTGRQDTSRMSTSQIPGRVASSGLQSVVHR
PHKG1, sequence (Q16816 whole entry): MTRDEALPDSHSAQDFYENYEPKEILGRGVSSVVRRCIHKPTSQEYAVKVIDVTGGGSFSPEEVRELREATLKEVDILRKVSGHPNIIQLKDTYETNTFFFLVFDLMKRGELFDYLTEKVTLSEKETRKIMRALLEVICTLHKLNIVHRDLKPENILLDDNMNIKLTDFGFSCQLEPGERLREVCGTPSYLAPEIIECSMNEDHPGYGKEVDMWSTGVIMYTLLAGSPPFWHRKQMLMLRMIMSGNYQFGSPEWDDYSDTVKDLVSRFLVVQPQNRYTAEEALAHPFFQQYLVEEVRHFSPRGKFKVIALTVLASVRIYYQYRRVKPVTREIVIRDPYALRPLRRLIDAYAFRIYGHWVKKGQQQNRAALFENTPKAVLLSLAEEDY

Consider `c1ccc2c(c1)Sc1ccccc1N2CCN1CCOCC1` [J54], for which the remaining binding at BMPR1A turned out to be 72%; at CDK4-cyclinD3, 98%; on CSNK1D, 95%; on DMPK2, 89%; on ERBB3 it was 78%; on FLT3(ITD,F691L), 65%. The remaining binding at FYN was found to be 100%; at HUNK it was 58%; at IKK-beta it was 100%; in [1] it was 85%; at LIMK1 it was 100%; at MAP3K1, 100%. Further, the remaining binding came out at 100% on MAST1; 100% at NEK9; 100% on PHKG1; 98% on PKAC-alpha; 94% on PRKCH; 100% at RIPK4. At STK16, the remaining binding is 99%.
